Tests used:
[1] = molecular target: T1, His-PKC-theta (Homo sapiens, UniProt Q04759); test: PKC-theta Assay (384-well time resolved fluorescence, IMAP TR-FRET); format: biochemical; settings: read-out: Act. Level (IC50 in the PKC-theta Assay)
T1 construct: His; purchased Invitrogen
Method in brief: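 Fam-labeled S6-derived peptide (200 nM) and 10 μM ATP were reacted with 142 pM enzyme for 2 h at room temperature in HEPES pH 7.6 buffer with MgCl2, DTT, Triton X-100, BSA and EDTA. The reaction was stopped with IMAP progressive binding reagent plus Tb donor, incubated overnight, then TR-FRET read.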

[2] = molecular target: T2, PKC delta (Homo sapiens, UniProt Q05655); test: PKC delta Assay (384-well time resolved fluorescence, IMAP TR-FRET); format: biochemical; settings: selectivity for PKC-theta over PKC-delta
T2 construct: purchased Invitrogen
Method in brief: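 1.5 nM enzyme with 200 nM Fam-labeled S6-derived peptide and 10 μM ATP in 50 mM HEPES pH 7.6, 10 mM MgCl2, 1 mM DTT, 0.01% Triton X-100, 0.01% BSA, 0.1 mM EDTA; 2 hours at room temperature. Stopped with IMAP binding reagent and Tb donor, incubated overnight, read by TR-FRET.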

T1 sequence (Q04759 whole entry): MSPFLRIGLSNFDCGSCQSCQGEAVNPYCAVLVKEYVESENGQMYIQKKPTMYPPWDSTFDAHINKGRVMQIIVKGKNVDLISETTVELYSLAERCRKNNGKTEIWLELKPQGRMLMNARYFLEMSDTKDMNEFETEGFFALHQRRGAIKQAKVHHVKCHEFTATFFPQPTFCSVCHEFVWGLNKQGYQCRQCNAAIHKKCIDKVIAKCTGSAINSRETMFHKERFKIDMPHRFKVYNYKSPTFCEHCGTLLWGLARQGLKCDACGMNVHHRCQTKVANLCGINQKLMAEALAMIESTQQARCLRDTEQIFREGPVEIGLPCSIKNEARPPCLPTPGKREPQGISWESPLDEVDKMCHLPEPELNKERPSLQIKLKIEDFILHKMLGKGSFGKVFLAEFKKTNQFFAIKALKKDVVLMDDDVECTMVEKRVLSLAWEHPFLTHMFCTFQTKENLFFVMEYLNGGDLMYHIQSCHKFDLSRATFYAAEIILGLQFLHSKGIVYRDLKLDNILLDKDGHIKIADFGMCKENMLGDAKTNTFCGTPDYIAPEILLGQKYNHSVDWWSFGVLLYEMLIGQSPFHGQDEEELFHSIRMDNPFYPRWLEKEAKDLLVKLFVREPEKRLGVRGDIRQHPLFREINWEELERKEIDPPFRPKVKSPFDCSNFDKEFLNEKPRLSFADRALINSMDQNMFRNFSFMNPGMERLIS
T2 sequence (Q05655 whole entry): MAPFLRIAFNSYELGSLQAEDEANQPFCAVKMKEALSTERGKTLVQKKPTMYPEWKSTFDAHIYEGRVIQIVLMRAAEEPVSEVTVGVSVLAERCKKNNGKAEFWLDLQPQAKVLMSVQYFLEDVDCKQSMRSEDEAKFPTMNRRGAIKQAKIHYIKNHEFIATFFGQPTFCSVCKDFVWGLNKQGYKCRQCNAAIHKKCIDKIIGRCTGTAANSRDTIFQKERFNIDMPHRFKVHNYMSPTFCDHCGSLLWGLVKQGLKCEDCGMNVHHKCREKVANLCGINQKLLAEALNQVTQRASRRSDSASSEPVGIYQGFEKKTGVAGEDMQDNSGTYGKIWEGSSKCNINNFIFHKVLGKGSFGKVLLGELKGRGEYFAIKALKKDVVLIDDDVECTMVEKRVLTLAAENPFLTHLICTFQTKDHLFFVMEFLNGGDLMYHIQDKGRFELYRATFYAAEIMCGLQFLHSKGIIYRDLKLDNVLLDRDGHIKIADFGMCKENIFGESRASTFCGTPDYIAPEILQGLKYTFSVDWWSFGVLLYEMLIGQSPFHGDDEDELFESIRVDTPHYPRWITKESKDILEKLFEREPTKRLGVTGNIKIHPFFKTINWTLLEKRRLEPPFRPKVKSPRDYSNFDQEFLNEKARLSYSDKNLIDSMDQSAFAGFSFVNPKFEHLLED

Structure (SMILES)	IC50 [1] [nM]	Sel. Level (ratio of IC50 PKC-delta/IC50 PKC-theta) [2]
CC1(C)C[C@H](Nc2nc(NCCc3cnc(C4CC4)nc3)ncc2C#N)CC[C@@H]1O [Cmpd 218]	2000 to 10000	H (selectivity level of 5-fold or less (selectivity level H))
CC1(C)[C@@H](O)C[C@H]1Nc1nc(NCCc2cc3ccccc3[nH]2)ncc1C#N [Cmpd 237]	800 to 2000	G (selectivity between 5- and 20-fold (selectivity level G))
CCOc1cccc(CCNc2ncc(C#N)c(N[C@@H]3CC[C@H](O)C(C)(C)C3)n2)n1 [Cmpd 257]	800 to 2000	G (selectivity between 5- and 20-fold (selectivity level G))
CCOc1cccc(CCNc2ncc(C#N)c(N[C@@H]3C[C@H](O)C3(C)C)n2)n1 [Cmpd 267]	800 to 2000	G (selectivity between 5- and 20-fold (selectivity level G))
CC1(C)C[C@H](Nc2nc(NCCn3cccn3)ncc2C#N)CC[C@@H]1O [Cmpd 211]	2000 to 10000	H (selectivity level of 5-fold or less (selectivity level H))
CC1(C)C[C@H](Nc2nc(NCCn3cncn3)ncc2C#N)CC[C@@H]1O [Cmpd 223]	2000 to 10000	H (selectivity level of 5-fold or less (selectivity level H))
COc1cccc(CCNc2ncc(C#N)c(N[C@@H]3CC(O)C3(C)C)n2)n1 (some centres unmarked) [Cmpd 227]	800 to 2000	G (selectivity between 5- and 20-fold (selectivity level G))
CC1(C)C[C@H](Nc2nc(NCCc3nc4ccccc4o3)ncc2C#N)CC[C@@H]1O [Cmpd 205]	2000 to 10000	H (selectivity level of 5-fold or less (selectivity level H))
Cc1nc(CCNc2ncc(C#N)c(N[C@@H]3CC(O)C3(C)C)n2)no1 (some centres unmarked) [Cmpd 233]	2000 to 10000	H (selectivity level of 5-fold or less (selectivity level H))
Cc1cccc(CCNc2ncc(C#N)c(N[C@@H]3C[C@H](O)C3(C)C)n2)n1 [Cmpd 262]	2000 to 10000	H (selectivity level of 5-fold or less (selectivity level H))
CCOc1cc(CCNc2ncc(C#N)c(N[C@H]3CC[C@@H](O)CC3)n2)ccn1 [Cmpd 328]	2000 to 10000	H (selectivity level of 5-fold or less (selectivity level H))
CC1(C)[C@@H](O)C[C@H]1Nc1nc(NCCc2ccon2)ncc1C#N [Cmpd 228]	800 to 2000	G (selectivity between 5- and 20-fold (selectivity level G))
COc1cccc(CCNc2ncc(C#N)c(N[C@H]3CC[C@@H](O)CC3)n2)n1 [Cmpd 327]	2000 to 10000	H (selectivity level of 5-fold or less (selectivity level H))
Cc1cccn1CCNc1ncc(C#N)c(N[C@H]2CC[C@@H](C(N)=O)CC2)n1 [Cmpd 324]	800 to 2000	G (selectivity between 5- and 20-fold (selectivity level G))
CC1(C)C[C@H](Nc2nc(NCCn3ccnc3)ncc2C#N)CC[C@@H]1O [Cmpd 221]	2000 to 10000	H (selectivity level of 5-fold or less (selectivity level H))
CC1(C)C[C@H](Nc2nc(NCCc3ccncc3)ncc2C#N)CC[C@@H]1O [Cmpd 280]	100 to 800	G (selectivity between 5- and 20-fold (selectivity level G))
CC1(C)[C@@H](O)C[C@H]1Nc1nc(NCCc2cnoc2)ncc1C#N [Cmpd 246]	2000 to 10000	H (selectivity level of 5-fold or less (selectivity level H))

Continued, in another order:

IC50 [1] [nM]	Structure (SMILES)	Sel. Level (ratio of IC50 PKC-delta/IC50 PKC-theta) [2]
100 to 800	CC(F)(F)COc1ncncc1CNc1ncc(C#N)c(N[C@H]2CC3(C2)C[C@](C)(O)C3)n1 (some centres unmarked) [Cmpd 294]	F (selectivity of between 20- and 100-fold (selectivity level F))
100 to 800	CC1(C)[C@H](O)CCC[C@@H]1Nc1nc(NCCC2C(=O)Nc3cc(F)ccc32)ncc1C#N (some centres unmarked) [Cmpd 311]	G (selectivity between 5- and 20-fold (selectivity level G))
100 to 800	CC1(C)[C@@H](O)C[C@H]1Nc1nc(NCCn2cccc2)ncc1C#N [Cmpd 238]	G (selectivity between 5- and 20-fold (selectivity level G))
100 to 800	CC1(C)C[C@H](Nc2nc(NCCn3cccc3)ncc2C#N)CC[C@@H]1O [Cmpd 201]	F (selectivity of between 20- and 100-fold (selectivity level F))
100 to 800	CC1(C)C[C@H](Nc2nc(NCC[C@@]3(C)C(=O)Nc4ccccc43)ncc2C#N)CC[C@@H]1O [Cmpd 304]	F (selectivity of between 20- and 100-fold (selectivity level F))
100 to 800	CC1(C)C[C@H](Nc2nc(NCCc3cncc(Cl)c3)ncc2C#N)CC[C@@H]1O [Cmpd 276]	F (selectivity of between 20- and 100-fold (selectivity level F))
100 to 800	Cc1[nH]c2cc(Cl)cc(Cl)c2c1CCNc1ncc(C#N)c(N[C@@H]2CC[C@H](O)C(C)(C)C2)n1 [Cmpd 254]	G (selectivity between 5- and 20-fold (selectivity level G))
< 100	CC1(C)[C@@H](O)C[C@H]1Nc1nc(NCCC2C(=O)Nc3ccccc32)ncc1C#N (some centres unmarked) [Cmpd 259]	E (selectivity (Sel. Level=ratio of IC50 PKC-delta/IC50 PKC-theta) of >100-fold (selectivity level E))
100 to 800	CC(F)(F)COc1ncncc1CNc1ncc(C#N)c(N[C@H]2CC3(C2)C[C@](C)(O)C3)n1 (some centres unmarked) [Cmpd 295]	F (selectivity of between 20- and 100-fold (selectivity level F))
< 100	Cc1cccc2c1NC(=O)C2CCNc1ncc(C#N)c(N[C@@H]2C[C@H](O)C2(C)C)n1 (some centres unmarked) [Cmpd 260]	F (selectivity of between 20- and 100-fold (selectivity level F))
100 to 800	CC1(C)[C@@H](O)C[C@H]1Nc1nc(NCCc2cc3cc(C#N)ccc3[nH]2)ncc1C#N [Cmpd 264]	G (selectivity between 5- and 20-fold (selectivity level G))
100 to 800	CC1(C)C[C@H](Nc2nc(NCCc3c[nH]c4ncccc34)ncc2C#N)CC[C@@H]1O [Cmpd 204]	F (selectivity of between 20- and 100-fold (selectivity level F))
< 100	Cn1cc(CCNc2ncc(C#N)c(N[C@@H]3CC[C@H](O)C(C)(C)C3)n2)c2ccccc21 [Cmpd 292]	F (selectivity of between 20- and 100-fold (selectivity level F))
100 to 800	Cc1ccc(CCNc2ncc(C#N)c(N[C@@H]3CC(O)C3(C)C)n2)o1 (some centres unmarked) [Cmpd 232]	F (selectivity of between 20- and 100-fold (selectivity level F))
100 to 800	CN(C)C(=O)[C@H]1C[C@@H](Nc2nc(NCCc3c[nH]c4ccccc34)ncc2C#N)C1 [Cmpd 288]	G (selectivity between 5- and 20-fold (selectivity level G))
< 100	CC1(C)C[C@H](Nc2nc(NCCc3c[nH]c4cc(F)ccc34)ncc2C#N)CC[C@@H]1O [Cmpd 252]	E (selectivity (Sel. Level=ratio of IC50 PKC-delta/IC50 PKC-theta) of >100-fold (selectivity level E))
< 100	CC(F)(F)COc1ncncc1CNc1ncc(C#N)c(N[C@@H]2CCC[C@H](O)C2(C)C)n1 [Cmpd 299]	E (selectivity (Sel. Level=ratio of IC50 PKC-delta/IC50 PKC-theta) of >100-fold (selectivity level E))

From patent US9783505B2, “Substituted diaminopyrimidyl compounds, compositions thereof, and methods of treatment therewith” (Signal Pharmaceuticals, LLC, priority 2013, dated 2017)
